Experimental data: patent publication US12295938B2, “Composition for treating castration-resistant prostate cancer, comprising quassinoids” (SAMSUNG LIFE PUBLIC WELFARE FOUNDATION, priority 2019, dated 2025)
Where two headings read alike, the source gives them in different places.

What was measured:
Type in all cases: cell-based
22RV1 cells = assay: MTT cell growth inhibition assay, 22RV1; details: Homo sapiens, read-out: IC50 (22RV1 cell growth)
Description: In brief, 22RV1 cells were seeded at a density of 1×10^4 cells/well into 96-well plates and treated with each drug at 6 concentrations ranging from 5 nM to 200 nM for 72 hours. Afterwards, an MTT dye solution and a solubilization solution/stop mix were added according to an MTT assay method, followed by reading absorbance at 570 nm to analyze cell viability and IC50.

[1] = test system: hormone-dependent AR transcriptional activity; assay: MMTV-LUC reporter assay in LNCaP cells, hormone-dependent AR transcriptional activity; details: Homo sapiens, read-out: IC50 (nM) DHT+
[2] = test system: AR transcriptional activity; assay: MMTV-LUC luciferase reporter assay in 22RV1 cells, DHT+ (screening and IC50); details: for activity at 0.1 µM / activity at 1 µM / activity at 10 µM / IC50: Homo sapiens; for activity at 0.1 µM / activity at 1 µM / activity at 10 µM / MMTV-LUC activity (%) DHT+: with DHT, control = 100; for IC50: AR transcriptional activity
Description: (§1) A library of antimalarial agents was screened using a luciferase reporter assay to measure changes in AR/AR-V7 transcriptional activity.
(§2) Screening was made primarily with 10 μM of each drug.

[3] = test system: AR-V7 transcriptional activity; assay: MMTV-LUC luciferase reporter assay in 22RV1 cells, DHT− (screening and IC50); details: for activity at 0.1 µM / activity at 1 µM / activity at 10 µM / IC50: Homo sapiens; for activity at 0.1 µM / activity at 1 µM / activity at 10 µM / IC50 / MMTV-LUC activity (%) DHT−: 22RV1 cells; for activity at 0.1 µM / activity at 1 µM / activity at 10 µM / MMTV-LUC activity (%) DHT−: no DHT, control = 100; for IC50: AR-V7 transcriptional activity; for potency as inhibitor of AR/AR-V7 transcriptional activity compared with ailanthone: in both CRPC 22RV1 cells and androgen-dependent LNCaP cells
Description: as §1, §2

IC50 (22RV1 cells; 22RV1 cells, MTT, 72 hours) [nM]	IC50 ([1]; LNCaP cells) [nM]	Molecule	IC50 (22RV1 cells; 22Rv1, 72 h) [nM]	IC50 ([1]; LNCaP) [nM]	activity at 0.1 µM ([2]; 0.1 uM) [%]	activity at 1 µM ([2]; 1 uM) [%]	activity at 10 µM ([2]; 10 uM) [%]	IC50 [2] [nM]	activity at 0.1 µM ([3]; 0.1 uM) [%]	activity at 1 µM ([3]; 1 uM) [%]	activity at 10 µM ([3]; 10 uM) [%]	IC50 [3] [nM]	potency as inhibitor of AR/AR-V7 transcriptional activity compared with ailanthone [3]	MMTV-LUC activity (%) DHT+ ([2]; 0.1 uM) [%]	MMTV-LUC activity (%) DHT+ ([2]; 1 uM) [%]	MMTV-LUC activity (%) DHT+ ([2]; 10 uM) [%]	MMTV-LUC activity (%) DHT− ([3]; 0.1 uM) [%]	MMTV-LUC activity (%) DHT− ([3]; 1 uM) [%]	MMTV-LUC activity (%) DHT− ([3]; 10 uM) [%]
		COC(=O)[C@@]12OC[C@]34[C@H]([C@@H](O)[C@@H]1O)[C@@]1(C)CC(=O)C(O)=C(C)[C@@H]1C[C@H]3OC(=O)[C@H](OC(=O)CC(C)C)[C@@H]24 [Bruceine A, bruceine A]	16.5	15	5.7 ± 1	3.6 ± 0.2	2.8 ± 0.2	9.45	19.5 ± 20.7	13.5 ± 1.7	11 ± 2.5	14.3	more potent inhibitors against AR/AR-V7 transcriptional activity						
15.1	11.7	COC(=O)[C@@]12OC[C@]34[C@H]([C@@H](O)[C@@H]1O)[C@@]1(C)CC(=O)C(O)=C(C)[C@@H]1C[C@H]3OC(=O)[C@H](OC(=O)C=C(C)C)[C@@H]24 [Brusatol, brusatol]			5.7 ± 0.6	4 ± 0.5	3.2 ± 0.2	6.23	18.9 ± 20.2	14 ± 1.3	10.3 ± 2.7	14	more potent inhibitors against AR/AR-V7 transcriptional activity						
		Yadanziolide C												92.5 ± 0.9	12.1 ± 2.0	1.1 ± 0.1	80.5 ± 2.9	17.4 ± 3.1	6.0 ± 0.7
